According to paper PMC6804443 (Acta Pharmaceutica Sinica. B, 2019):
Like-named read-outs stand apart in the source and are kept apart here. Each block holds one compound with its values, some of them ahead of it.

How the values were obtained:
CYP2C9 [1] = target: T1, CYP2C9 (Homo sapiens, UniProt P11712); experiment: CYP2C9 inhibition by XueBiJing compounds, cDNA-expressed enzyme [MFC→HFC]; assay type: in vitro ADME; conditions: 100 μmol/L
CYP2C9 [2] = target: T1, CYP2C9; assay type: in vitro ADME
UGT1A9 = target: T2, UGT1A9 (Homo sapiens, UniProt O60656); experiment: UGT1A9 inhibition by XueBiJing compounds, cDNA-expressed enzyme [4-MU→4-MUG]; assay type: in vitro ADME; conditions: 100 μmol/L
T2 sequence (O60656 26-530): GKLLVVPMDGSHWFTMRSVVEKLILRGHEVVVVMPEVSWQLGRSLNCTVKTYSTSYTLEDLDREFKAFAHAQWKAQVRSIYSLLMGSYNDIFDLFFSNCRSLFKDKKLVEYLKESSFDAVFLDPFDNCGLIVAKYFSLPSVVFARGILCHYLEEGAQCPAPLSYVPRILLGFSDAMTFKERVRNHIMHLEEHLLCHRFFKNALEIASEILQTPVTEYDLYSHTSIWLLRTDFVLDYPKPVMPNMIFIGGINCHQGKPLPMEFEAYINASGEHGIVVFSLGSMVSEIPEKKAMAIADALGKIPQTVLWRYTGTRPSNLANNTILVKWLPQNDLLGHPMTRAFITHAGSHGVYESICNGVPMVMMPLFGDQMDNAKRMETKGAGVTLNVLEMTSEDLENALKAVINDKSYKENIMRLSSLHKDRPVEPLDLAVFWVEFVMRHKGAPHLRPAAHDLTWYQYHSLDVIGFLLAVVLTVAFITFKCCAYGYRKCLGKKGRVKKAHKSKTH

[3] = system: P450 enzymes, UGTs, SULTs, OATP1B1/1B3, OAT1/3, OCT2, MATE1/2-K, MDR1, BCRP; assay type: in vitro ADME, human; conditions: data pending publication elsewhere
[4] = system: P450 enzymes, UGTs, SULTs, OATP1B1/1B3, OAT1/3, OCT2, MATE1/2-K, MDR1, BCRP; conditions: cited from earlier work
OAT2 = target: T3, OAT2 (Homo sapiens, UniProt Q9Y694); conditions: read-out: Km as OAT2 substrate; cited from earlier work
T3 sequence (Q9Y694 1-546 isoform Q9Y694-2): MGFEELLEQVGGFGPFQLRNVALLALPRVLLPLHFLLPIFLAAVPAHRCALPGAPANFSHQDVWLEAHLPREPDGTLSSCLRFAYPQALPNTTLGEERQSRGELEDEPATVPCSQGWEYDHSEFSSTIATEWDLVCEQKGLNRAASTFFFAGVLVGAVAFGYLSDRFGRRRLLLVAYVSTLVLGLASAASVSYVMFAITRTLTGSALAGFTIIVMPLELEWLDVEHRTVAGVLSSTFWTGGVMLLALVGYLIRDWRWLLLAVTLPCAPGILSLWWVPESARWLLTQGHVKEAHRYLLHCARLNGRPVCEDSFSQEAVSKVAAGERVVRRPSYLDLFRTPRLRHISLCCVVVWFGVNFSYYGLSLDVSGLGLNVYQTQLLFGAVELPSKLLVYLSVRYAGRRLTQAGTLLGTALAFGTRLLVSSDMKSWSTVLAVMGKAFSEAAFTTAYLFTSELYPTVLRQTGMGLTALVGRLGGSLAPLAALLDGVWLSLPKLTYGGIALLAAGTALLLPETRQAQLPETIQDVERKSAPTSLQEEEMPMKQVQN

[5] = cited from earlier work
OAT3 [6] = target: T4, OAT3 (Homo sapiens, UniProt Q8TCC7); conditions: read-out: Km as OAT3 substrate; cited from earlier work
T4 sequence (Q8TCC7 1-542): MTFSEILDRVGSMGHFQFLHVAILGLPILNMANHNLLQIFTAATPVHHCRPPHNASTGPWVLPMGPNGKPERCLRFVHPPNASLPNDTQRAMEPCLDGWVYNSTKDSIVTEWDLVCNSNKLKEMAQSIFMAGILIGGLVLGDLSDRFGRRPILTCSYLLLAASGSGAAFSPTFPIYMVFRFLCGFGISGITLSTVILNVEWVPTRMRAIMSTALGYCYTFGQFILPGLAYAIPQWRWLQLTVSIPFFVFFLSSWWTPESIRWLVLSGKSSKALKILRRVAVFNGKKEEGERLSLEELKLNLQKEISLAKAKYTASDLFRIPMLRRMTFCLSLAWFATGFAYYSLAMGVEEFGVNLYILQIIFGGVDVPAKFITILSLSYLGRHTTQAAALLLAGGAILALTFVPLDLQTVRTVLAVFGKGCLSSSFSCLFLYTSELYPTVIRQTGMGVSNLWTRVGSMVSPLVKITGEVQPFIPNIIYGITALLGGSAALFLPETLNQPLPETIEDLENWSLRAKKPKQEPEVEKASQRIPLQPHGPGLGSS

CYP2B6 = CYP2B6 induction by XueBiJing compounds in cryopreserved human hepatocytes; assay type: in vitro ADME; conditions: higher concentrations; range over the named compounds and enzymes
CYP1A2 = conditions: hepatocytes
OAT1 [7] = target: T5, OAT1 (Homo sapiens, UniProt Q4U2R8); conditions: read-out: Km as OAT1 substrate; cited from earlier work
T5 sequence (Q4U2R8 1-563): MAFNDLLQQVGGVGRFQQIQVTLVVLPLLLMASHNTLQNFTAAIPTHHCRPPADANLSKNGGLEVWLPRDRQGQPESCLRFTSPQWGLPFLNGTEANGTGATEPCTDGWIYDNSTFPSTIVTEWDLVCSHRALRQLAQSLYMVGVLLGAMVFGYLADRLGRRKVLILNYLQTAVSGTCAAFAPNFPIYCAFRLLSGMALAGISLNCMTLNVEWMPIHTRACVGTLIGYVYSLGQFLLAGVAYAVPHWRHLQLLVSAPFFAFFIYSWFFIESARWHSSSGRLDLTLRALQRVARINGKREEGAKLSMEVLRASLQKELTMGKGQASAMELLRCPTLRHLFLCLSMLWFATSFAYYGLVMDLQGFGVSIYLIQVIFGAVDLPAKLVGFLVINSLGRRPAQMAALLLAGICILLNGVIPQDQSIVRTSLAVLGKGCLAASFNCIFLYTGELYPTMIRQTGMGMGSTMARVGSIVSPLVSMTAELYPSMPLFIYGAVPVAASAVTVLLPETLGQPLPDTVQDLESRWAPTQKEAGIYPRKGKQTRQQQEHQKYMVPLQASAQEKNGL

OAT1 [8] = target: T5, OAT1; experiment: OAT1 inhibition by XueBiJing compounds, transfected HEK293 cells [PAH]; assay type: in vitro ADME; conditions: for Inhibition of OAT1: 100 μmol/L; for IC50: read-out: IC50, OAT1 [PAH], mean ± SD (n = 3)
[9] = XueBiJing compounds, cited from earlier work; for LogD(7.4): pH 7.4
OATP1B3 [10] = target: T6, OATP1B3 (Homo sapiens, UniProt Q9NPD5); conditions: IC50, OATP1B3 [X10], mean ± SD (n = 3)
T6 sequence (Q9NPD5 1-702): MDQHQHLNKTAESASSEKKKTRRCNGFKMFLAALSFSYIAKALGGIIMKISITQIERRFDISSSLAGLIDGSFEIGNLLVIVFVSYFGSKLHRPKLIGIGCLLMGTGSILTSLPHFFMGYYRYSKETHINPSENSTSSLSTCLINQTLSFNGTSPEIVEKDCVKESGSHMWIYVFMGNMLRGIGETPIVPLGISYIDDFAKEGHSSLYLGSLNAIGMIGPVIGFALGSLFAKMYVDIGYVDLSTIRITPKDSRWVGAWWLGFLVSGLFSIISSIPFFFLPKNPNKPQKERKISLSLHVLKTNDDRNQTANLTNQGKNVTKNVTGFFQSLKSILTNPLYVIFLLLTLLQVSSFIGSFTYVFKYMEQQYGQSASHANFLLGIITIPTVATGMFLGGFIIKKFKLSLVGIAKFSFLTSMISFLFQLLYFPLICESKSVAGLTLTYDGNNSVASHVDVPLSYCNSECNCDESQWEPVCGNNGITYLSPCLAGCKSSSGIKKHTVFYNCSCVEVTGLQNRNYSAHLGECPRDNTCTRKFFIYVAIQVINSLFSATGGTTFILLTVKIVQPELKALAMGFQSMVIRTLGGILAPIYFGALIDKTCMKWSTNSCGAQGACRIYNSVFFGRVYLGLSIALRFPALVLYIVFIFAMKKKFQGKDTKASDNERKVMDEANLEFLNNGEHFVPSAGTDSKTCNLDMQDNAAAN

OAT3 [11] = target: T4, OAT3; experiment: Reported in vitro interaction with OAT3; assay type: in vitro ADME; conditions: estimated from reported Cmax, fu-p and literature potency
OATP1B3 [12] = target: T6, OATP1B3; conditions: antibiotic as perpetrator, salvianolic acid B (X10) as victim; (Cmax × fu-p × R)/IC50
OATP1B3 [13] = target: T6, OATP1B3; experiment: in vitro
[14] = XueBiJing compounds; cited from earlier work
[15] = human, XueBiJing 100 mL via 75-min intravenous infusion

T1 sequence (P11712 whole entry): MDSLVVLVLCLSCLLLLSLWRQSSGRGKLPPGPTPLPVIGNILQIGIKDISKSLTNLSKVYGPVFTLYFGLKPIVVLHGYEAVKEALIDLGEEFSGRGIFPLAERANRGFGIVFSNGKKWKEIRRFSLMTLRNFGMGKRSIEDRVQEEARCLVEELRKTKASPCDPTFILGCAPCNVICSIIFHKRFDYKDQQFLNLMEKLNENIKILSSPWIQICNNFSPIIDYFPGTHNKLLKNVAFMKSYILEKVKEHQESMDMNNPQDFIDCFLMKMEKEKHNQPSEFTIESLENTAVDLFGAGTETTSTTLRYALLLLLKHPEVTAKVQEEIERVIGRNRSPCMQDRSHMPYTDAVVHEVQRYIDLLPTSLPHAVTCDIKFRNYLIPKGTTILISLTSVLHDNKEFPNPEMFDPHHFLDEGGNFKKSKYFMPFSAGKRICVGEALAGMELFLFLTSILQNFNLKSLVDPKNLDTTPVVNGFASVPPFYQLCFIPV

Inhibition of CYP2C9 (CYP2C9 [1]): 55%
Time-dependent inhibition of CYP2C9 (CYP2C9 [2]): negligible
Inhibition of UGT1A9 (UGT1A9): 57%
Compound: oxypaeoniflorin [X3]

Compound: O=Cc1ccc(O)c(O)c1 [PCD, protocatechuic aldehyde]
Related metabolism and transport data (substrate status) [3]: PCD is metabolized by ALDH and COMT. Impaired ALDH activity can be compensated by COMT, but could result in decreased systemic exposure to X11 ^a.

mRNA-T/U ratio, CYP2B6 (CYP2B6): 4.0 to 9.6
EA-T/U ratio (treated-cell/untreated-cell ratio of enzyme activity), CYP1A2 (CYP1A2): 2.1–4.9
mRNA-T/U ratio, CYP1A2 (CYP1A2): 4.0 to 9.6
Inhibition of OAT1 (OAT1 [8]): > 50%
IC50 (OAT1 [8]): 78 ± 14 µM
EA-T/U ratio, CYP3A4 (CYP3A4; hepatocytes): 2.1–4.9
mRNA-T/U ratio, CYP3A4 (CYP3A4; hepatocytes): 4.0 to 9.6
Compound: O=C(O)C(O)Cc1ccc(O)c(O)c1 (centres unmarked) [X8, tanshinol]
Related metabolism and transport data (substrate status) [4]: COMT substrate
Km (OAT2): 859 µM
fu-p (unbound fraction in plasma) ([5]; human plasma): 99%
Cmax [5, 15]: 100 nM
VSS [5, 15]: 1.13 L/kg
t1/2 [5, 15]: 42 min
fe-U (fraction of dose excreted unchanged into urine) ([5]; human): 59%
Km (OAT3 [6]): 1890 µM
Km (OAT1 [7]): 121 µM
pKa [9]: 3.8
LogD(7.4) [9]: −3.3

IC50 (OATP1B3 [10]): 53 ± 20 µM
DDI index, inhibiting OAT3 (OAT3 [11]): ≥ 1.0
Inhibition DDI index, OATP1B3 (OATP1B3 [12]): 1.70
inhibition at 1000 μmol/L (OATP1B3 [13]): > 90%
Compound: Cn1nnnc1SCC1=C(C(=O)O)N2C(=O)[C@@H](NC(=O)[C@H](O)c3ccccc3)[C@H]2SC1 [A11, cefamandole]

mRNA-T/U ratio, CYP2B6 (CYP2B6): 4.0 to 9.6
Inhibition of OAT1 (OAT1 [8]): > 50%
IC50 (OAT1 [8]): 106 ± 26 µM
mRNA-T/U ratio, CYP3A4 (CYP3A4; higher concentrations, range over the named compounds and enzymes): 4.0 to 9.6
Compound: COc1cc(CC(O)C(=O)O)ccc1O (centres unmarked) [X9, 3-O-methyltanshinol]
Km (OAT2): 2850 µM
Cmax [5, 15]: 10 nM
Major elimination route ([5]; human): Renal excretion, TS&GF-based
Km (OAT3 [6]): 871 µM
Km (OAT1 [7]): 219 µM
pKa [9]: 3.8
LogD(7.4) [9]: −3.3
Membrane permeability [14]: Good
